Assays:
Format in all cases: cell-based, Macaca mulatta (rhesus monkey)
[1] = molecular target: T1, GR/NURR1 chimera (rat GR DBD fused to rhNURR1 LBD) (UniProt P06536+P43354); experiment: GR/NURR1 chimera transactivation of the MMTV-LUC reporter in transfected CHO cells; conditions: FIG. 6; for NURR1 agonist activity: CHO cells co-transfected with GR/NURR1 chimera and reporter gene expression cassette; for luciferase expression from the MMTV-LUC reporter plasmid: CHO cells, compared to compound F and TOFA
T1 construct: expressed in transfected cells; host or cells: CHO cells, transient transfection of the pSG5 plasmid
Description: A nucleic acid encoding a chimeric nuclear receptor comprising the rat glucocorticoid receptor (GR) DBD fused to the rhNURR1 LBD was constructed and the nucleic acid inserted downstream of the SV40 promoter in plasmid pSG5. The rat GR DBD consists of about amino acid 1 to about amino acid 505 and the rhNURR1 LBD consists of the amino acid sequence beginning from about amino acid 329 to about amino acid 598 (See FIG. 2). A nucleic acid encoding the rat GR DBD, which consisted of nucleotides 1 to 1583 (and which included the proximal 5′ untranslated sequences), was ligated to the nucleic encoding the rhNURR1 (nucleotides 329 to 1794). At the junction in the fusion protein between amino acid 505 of the rat GR DBD and amino acid 329 of the rhNURR1 LDB there are three extra amino acids, Alanine, Arginine, and Glutamic acid, which are encoded by the oligonucleotide 5′-GCTCGAGAA-3′ (SEQ ID NO:11) which includes an XhoI restriction enyme site.
The chimeric nuclear receptor was constructed by ligating the rat GRDBD encoding nucleotide fragment (nucleotides 1 to 1583) to the rhNURR1 LBD encoding nucleotide fragment (nucleotides 329 to 1794) and then inserting the ligated GRDBD/rhNURR1 LBD nucleotide fragments into the pSG5 plasmid expression vector between the EcoRI and BamHI sites.
A reporter gene expression cassette comprising the MMTV(2xGRE) promoter was constructed as described in Schmidt et al., Mol. Endocrinol. 6(10):1634-41 (1992).
A routine transient transfection assay for identifying agonists of rhNURR1 activity is described. While the transfection uses the FuGENE6 method of Roche Applied Science, Indianapolis, Ind., other transfection methods can be used.
In general, the method consists of plating about 0.8 to 1×10^4 transfected COS-1 or CHO cells per well of 96-well tissue culture plates which are UV and visible light transparent. The media that the cells are plated in is exponential growth medium which consists of phenol red-free DMEM containing 10% fetal bovine serum and 1× penicillin/streptomycin. Incubation conditions are 37° C. and 5% CO2. The transfection is done in batch mode.
For a transfection, the cells are trypsinized and resuspended to about 8×10^4 cells/mL in fresh medium. FuGENE6 is mixed with serum-free medium (for example, OPTIMEM, Invitrogen, Carlsbad, Calif.) at a ratio of 2 to 3. About 0.625 ng of DNA encoding the chimeric receptor of Example 2 and 0.625 ng DNA comprising the MMTV promoter operably linked to the luciferase gene (MMTV-LUC) are added to the FuGENE6 in serum-free medium and the mixture incubated at room temperature for about 20 minutes. The mixture is then added to one mL of the cell suspension and 100 μL aliquots plated to the wells of a 96-well tissue culture plate. Thus, a total ten wells contain cells, each containing about 8,000 cells. About 16 to 24 hours after transfection, for each well, about 1 uL of an analyte in a vehicle such as DMSO is added to the well. At least one well is reserved as a control and receives the vehicle alone. After 24 hours exposure to the analytes, the cells are assayed for luciferase activity. The cells are lysed by a Promega cell culture lysis buffer for approximately 30 min and then the luciferase activity in the extracts is assayed in the 96-well format liminometer (MICROBETA JET 1450, Perkin Elmer, Boston, Mass.). Results are calculated as fold induction of compound treated cells over control treated cells.
The CHO cells were transfected as in Example 3. […]

[2] = molecular target: T2, GR/NURR1 chimera receptor (NURR1 LBD) (UniProt P06536+P43354); experiment: Relative transactivation of GR/NURR1 chimera receptor versus GR/PPARα chimeric receptor, MMTV-luciferase reporter; conditions: test analytes at 0, 1, 10, and 30 μM in DMSO; FIG. 7
T2 construct: expressed in transfected cells
Method: The relative transactivation of GR/NURR1 chimera receptor in response to a panel of test analytes was determined.
To further verify the selective NURR1 LBD-compound interactions, the same compounds were added to cells that had been co-transfected with the MMTV-luciferase reporter gene expression cassette and a gene expression cassette comprising DNA encoding either the chimeric receptor GR/NURR1 or a chimeric GR/PPARα receptor under conditions similar to those in Example 5.
Expression vector 3GR/PPARα contained the chimeric GR/PPARα receptor in which DNA encoding the DNA binding domain of GR was fused to the ligand binding domain of mouse PPARα was inserted into plasmid pSG5 (See Boie et al., J. Biol. Chem. 268: 5530-[…] (1993)).
Then, aliquots of the transfected cells were treated with test analytes at 0, 1, 10, and 30 μM concentrations in DMSO. The test analytes included Bicalutamide, Lovastatin, ZOCOR, and various SARM compounds. The results are shown in FIG. 7 and are expressed as a relative activity in which the activity at each concentration that was obtained with the extracts from the cells cotransfected with GR/NURR1 was divided by the corresponding activity that was obtained from extracts from the cells cotransfected with GR/PPARα. Other chimeric receptors other than GR/PPARα can be used. […]

[3] = molecular target: T2, GR/NURR1 chimera receptor (NURR1 LBD); experiment: Relative transactivation of GR/NURR1 chimera receptor versus GR/LXRβ chimeric receptor, MMTV-luciferase reporter; conditions: test analytes at 0, 1, 10, and 30 μM in DMSO; 48 hours post-transfection; FIG. 8
Method: Relative transactivation of GR/NURR1 chimera receptor in response to a panel of test analytes was determined.
An MMTV-luciferase reporter gene expression cassette was cotransfected with a gene expression cassette comprising DNA encoding either the chimeric receptor GR/NURR1 or a chimeric receptor comprising GR/LXRβ under transfection conditions similar to those in Example 3.
Expression vector GR/LXRβ was prepared in a similar manner to the GR/PPARα chimeric receptor in Example 5. […]
The next day, the transfected cells were washed and then refed with the appropriate medium containing 5% activated charcoal-stripped serum. […] The results are shown in FIG. 8 and are expressed as a relative activity in which the activity at each concentration that was obtained with cells transfected with the GR/NURR1 was divided by the corresponding activity that was obtained from cells cotransfected with the GR/LXRβ. […]

T1 sequence (P06536+P43354 fused, change not shown): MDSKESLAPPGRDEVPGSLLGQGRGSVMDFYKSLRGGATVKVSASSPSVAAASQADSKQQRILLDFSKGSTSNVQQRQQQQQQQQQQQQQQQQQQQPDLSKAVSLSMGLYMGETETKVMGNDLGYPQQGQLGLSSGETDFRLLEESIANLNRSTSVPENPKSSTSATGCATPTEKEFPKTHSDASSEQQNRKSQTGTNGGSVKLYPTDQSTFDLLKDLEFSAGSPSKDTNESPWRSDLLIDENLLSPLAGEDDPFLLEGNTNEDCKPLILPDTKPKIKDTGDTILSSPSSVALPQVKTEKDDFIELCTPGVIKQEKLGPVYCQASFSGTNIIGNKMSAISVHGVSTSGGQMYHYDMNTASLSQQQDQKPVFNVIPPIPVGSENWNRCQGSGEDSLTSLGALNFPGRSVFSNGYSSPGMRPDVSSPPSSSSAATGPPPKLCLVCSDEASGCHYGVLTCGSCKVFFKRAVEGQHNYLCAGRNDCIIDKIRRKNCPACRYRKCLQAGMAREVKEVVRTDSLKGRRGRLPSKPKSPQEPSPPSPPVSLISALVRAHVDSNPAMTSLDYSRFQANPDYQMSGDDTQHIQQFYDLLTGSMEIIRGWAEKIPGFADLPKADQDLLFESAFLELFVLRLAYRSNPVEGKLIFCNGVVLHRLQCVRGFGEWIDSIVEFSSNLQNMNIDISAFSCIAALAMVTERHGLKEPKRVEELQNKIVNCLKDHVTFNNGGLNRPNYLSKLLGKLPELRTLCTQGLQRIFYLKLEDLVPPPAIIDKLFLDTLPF
T2 sequence (P06536+P43354 fused, change not shown): as above

SMILES: CCCCCCCCCCCCCCOc1ccc(C(=O)O)o1 [TOFA, 5-(tetradecyloxy)-2-furoic acid]
- NURR1 agonist activity [1]: NURR1 agonists

SMILES: CCC(C)(C)C(=O)O[C@H]1C[C@@H](C)C=C2C=C[C@H](C)[C@H](CC[C@@H]3C[C@@H](O)CC(=O)O3)[C@H]21 [ZOCOR]
- relative activity (GR/NURR1 activity divided by GR/PPARα activity) [2]: increase in activity
- NURR1 agonist activity [1]: NURR1 agonists
- luciferase expression from the MMTV-LUC reporter plasmid [1]: increase in luciferase expression
- relative activity (GR/NURR1 activity divided by GR/LXRβ activity) [3]: increase in activity

SMILES: CC[C@H](C)C(=O)O[C@H]1C[C@@H](C)C=C2C=C[C@H](C)[C@H](CC[C@@H]3C[C@@H](O)CC(=O)O3)[C@H]21 [Lovastatin]
- relative activity (GR/NURR1 activity divided by GR/PPARα activity) [2]: increase in activity
- NURR1 agonist activity [1]: NURR1 agonists
- luciferase expression from the MMTV-LUC reporter plasmid [1]: increase in luciferase expression
- relative activity (GR/NURR1 activity divided by GR/LXRβ activity) [3]: increase in activity
